Values joined by “and” are separate entries in the source; they are usually repeats but may differ in a detail not shown here. Equal values may be shown once. Inconclusive results and toxic doses are left out.
Test system: P388 leukemia ip, CD2F1 mice, survival T/C
Test: NCI In Vivo Anticancer Drug Screen. Data for tumor model P388 Leukemia (intraperitoneal) in CD2F1 (CDF1) mice
Conditions: endpoint: median survival time, higher = longer survival
Method in brief: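 Mice carrying the transplanted tumor received test compound or vehicle. Survival was recorded in each group, and the value is the treated-group measurement divided by that of the vehicle-treated control group.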

[1] = dose: 50.0 mg/kg/injection, schedule: Q01DX009 (ip), vehicle: Klucel (hydroxypropylcellulose) (HPC)
[2] = dose: 100.0 mg/kg/injection, schedule: Q01DX009 (ip), vehicle: Klucel (hydroxypropylcellulose) (HPC)
[3] = dose: 60.0 mg/kg/injection, schedule: Q01DX005 (ip), vehicle: saline with Tween-80
[4] = dose: 120.0 mg/kg/injection, schedule: Q01DX005 (ip), vehicle: saline with Tween-80
[5] = dose: 240.0 mg/kg/injection, schedule: Q01DX005 (ip), vehicle: saline with Tween-80
[6] = dose: 25.0 mg/kg/injection, schedule: Q01DX009 (ip), vehicle: saline with Tween-80
[7] = dose: 50.0 mg/kg/injection, schedule: Q01DX009 (ip), vehicle: saline with Tween-80
[8] = dose: 200.0 mg/kg/injection, schedule: Q01DX009 (ip), vehicle: saline with Tween-80
[9] = dose: 50.0 mg/kg/injection, schedule: Q01DX005 (ip), vehicle: saline with Tween-80
[10] = dose: 100.0 mg/kg/injection, schedule: Q01DX005 (ip), vehicle: saline with Tween-80
[11] = dose: 200.0 mg/kg/injection, schedule: Q01DX005 (ip), vehicle: saline with Tween-80
[12] = dose: 15.0 mg/kg/injection, schedule: Q01DX005 (ip), vehicle: saline with Tween-80
[13] = dose: 30.0 mg/kg/injection, schedule: Q01DX005 (ip), vehicle: saline with Tween-80

## O=C(O)c1cccc([N+](=O)[O-])c1O
[1]
  T/C: 102 % of control
[2]
  T/C: 105 % of control
dose: 200.0 mg/kg/injection, schedule: Q01DX009 (ip), vehicle: Klucel (hydroxypropylcellulose) (HPC)
  T/C: 101 % of control
dose: 400.0 mg/kg/injection, schedule: Q01DX009 (ip), vehicle: Klucel (hydroxypropylcellulose) (HPC)
  T/C: 100 % of control

## Nc1[nH]c(=S)ncc1-c1ccccc1Cl
[3]
  T/C: 98 % of control
[4]
  T/C: 95 % of control
[5]
  T/C: 93 % of control

## CCCOC1CC(C)(O)Cc2cc3c(c(O)c21)C(=O)c1c(O)cc2c(c1C3=O)OC1OC2(C)C(O)C(N(C)C)C1O (stereo unspecified)
dose: 1.56 mg/kg/injection, schedule: Q01DX009 (ip), vehicle: other
  T/C: 124 % of control
dose: 3.13 mg/kg/injection, schedule: Q01DX009 (ip), vehicle: other
  T/C: 150 % of control

## CC(Oc1ccccc1)C(=O)N=c1scc(-c2ccc(Br)cc2)n1-c1cccc2ccccc12 (stereo unspecified)
dose: 6.25 mg/kg/injection, schedule: Q01DX009 (ip), vehicle: gum acacia
  T/C: 106 % of control
dose: 12.5 mg/kg/injection, schedule: Q01DX009 (ip), vehicle: gum acacia
  T/C: 106 % of control
dose: 25.0 mg/kg/injection, schedule: Q01DX009 (ip), vehicle: gum acacia
  T/C: 105 % of control
dose: 50.0 mg/kg/injection, schedule: Q01DX009 (ip), vehicle: gum acacia
  T/C: 101 % of control
dose: 100.0 mg/kg/injection, schedule: Q01DX009 (ip), vehicle: gum acacia
  T/C: 92 % of control
dose: 200.0 mg/kg/injection, schedule: Q01DX009 (ip), vehicle: gum acacia
  T/C: 98 % of control

## COc1ccc(C(C)=O)cc1OC
dose: 100.0 mg/kg/injection, schedule: Q04DX003 (ip), vehicle: saline
  T/C: 100 % of control
dose: 200.0 mg/kg/injection, schedule: Q04DX003 (ip), vehicle: saline
  T/C: 100 % of control
dose: 400.0 mg/kg/injection, schedule: Q04DX003 (ip), vehicle: saline
  T/C: 100 % of control

## O=C(O)C1=C(C=C(c2ccccc2)c2ccccc2)OCCC1
dose: 12.5 mg/kg/injection, schedule: Q01DX009 (ip), vehicle: saline with Tween-80
  T/C: 92 % of control
[6]
  T/C: 90 % of control
[7]
  T/C: 91 % of control
[8]
  T/C: 97 % of control

## Cc1c2oc3c(C)ccc(C(=O)NC(C(=O)NC(C(=O)NCCO)C(C)C)C(C)O)c3nc-2c(C(=O)NC(C(=O)NC(C(=O)NCCO)C(C)C)C(C)O)c(N)c1=O (stereo unspecified)
dose: 0.05 mg/kg/injection, schedule: Q01DX009 (ip), vehicle: water
  T/C: 99 % of control
dose: 0.1 mg/kg/injection, schedule: Q01DX009 (ip), vehicle: water
  T/C: 100 % of control
dose: 0.2 mg/kg/injection, schedule: Q01DX009 (ip), vehicle: water
  T/C: 100 % of control
dose: 0.4 mg/kg/injection, schedule: Q01DX009 (ip), vehicle: water
  T/C: 97 % of control
dose: 0.8 mg/kg/injection, schedule: Q01DX009 (ip), vehicle: water
  T/C: 98 % of control
dose: 1.6 mg/kg/injection, schedule: Q01DX009 (ip), vehicle: water
  T/C: 88 % of control and 94 % of control
dose: 3.2 mg/kg/injection, schedule: Q01DX009 (ip), vehicle: water
  T/C: 92 % of control
dose: 6.4 mg/kg/injection, schedule: Q01DX009 (ip), vehicle: water
  T/C: 110 % of control
dose: 12.8 mg/kg/injection, schedule: Q01DX009 (ip), vehicle: water
  T/C: 97 % of control

## CC(=O)OCC1OC(OC(C)=O)C(NC(=S)NCC(=O)c2ccc(C)cc2)C(OC(C)=O)C1OC(C)=O (stereo unspecified)
[9]
  T/C: 99 % of control
[10]
  T/C: 100 % of control
[11]
  T/C: 101 % of control

## S=c1n(-c2ccc(Cl)cc2)c2/c(=N\Nc3cc(Cl)ccc3Cl)c(n1-c1ccccn1)=NCCN=2
[12]
  T/C: 98 % of control
[13]
  T/C: 112 % of control
[3]
  T/C: 99 % of control and 112 % of control

## CC1=CN2C(c3cccc([N+](=O)[O-])c3)=NON(c3ccc(C)cn3)C2C=C1 (stereo unspecified)
[3]
  T/C: 87 % of control
[4]
  T/C: 86 % of control
[5]
  T/C: 92 % of control

## CC1=NN(C(=O)c2ccncc2)C(=O)C1N=Nc1ccc(S(N)(=O)=O)cc1 (stereo unspecified)
[7]
  T/C: 94 % of control
dose: 100.0 mg/kg/injection, schedule: Q01DX009 (ip), vehicle: saline with Tween-80
  T/C: 95 % of control
[8]
  T/C: 92 % of control

## CN(C)/C=N\c1ncnc2c1c(C#N)cn2C1OC(CO)C(O)C1O (stereo unspecified)
dose: 7.5 mg/kg/injection, schedule: Q01DX005 (ip), vehicle: Klucel (hydroxypropylcellulose) (HPC)
  T/C: 104 % of control and 112 % of control
dose: 15.0 mg/kg/injection, schedule: Q01DX005 (ip), vehicle: Klucel (hydroxypropylcellulose) (HPC)
  T/C: 120 % of control and 121 % of control

## Cc1ccc2c(c1)C(C)(C)C(O)CC2(C)C (stereo unspecified)
dose: 50.0 mg/kg/injection, schedule: Q01DX005 (ip), vehicle: Klucel (hydroxypropylcellulose) (HPC)
  T/C: 98 % of control
dose: 100.0 mg/kg/injection, schedule: Q01DX005 (ip), vehicle: Klucel (hydroxypropylcellulose) (HPC)
  T/C: 106 % of control
dose: 200.0 mg/kg/injection, schedule: Q01DX005 (ip), vehicle: Klucel (hydroxypropylcellulose) (HPC)
  T/C: 109 % of control

## O=C(N/N=C/c1cc(Br)cc(Br)c1[O-])c1ccccc1.O=C(N/N=C/c1cc(Br)cc(Br)c1[O-])c1ccccc1.[Ni+2]
dose: 100.0 mg/kg/injection, schedule: Q01DX001 (ip), vehicle: saline with Tween-80
  T/C: 90 % of control
dose: 200.0 mg/kg/injection, schedule: Q01DX001 (ip), vehicle: saline with Tween-80
  T/C: 90 % of control
dose: 400.0 mg/kg/injection, schedule: Q01DX001 (ip), vehicle: saline with Tween-80
  T/C: 94 % of control

## COC(=O)NC[Si](C)(C)C
[12]
  T/C: 105 % of control
[13]
  T/C: 106 % of control
[3]
  T/C: 103 % of control

## COC(=O)[C@@]12OC[C@]34C([C@@H](O)C1O)[C@@]1(C)CC(=O)C(O)=C(C)C1C[C@H]3OC(=O)[C@H](OC(=O)c1ccccc1Cl)[C@H]42 (stereo partly specified)
dose: 0.25 mg/kg/injection, schedule: Q01DX005 (ip), vehicle: DMSO
  T/C: 110 % of control
dose: 0.5 mg/kg/injection, schedule: Q01DX005 (ip), vehicle: DMSO
  T/C: 110 % of control
dose: 1.0 mg/kg/injection, schedule: Q01DX005 (ip), vehicle: DMSO
  T/C: 105 % of control and 97 % of control
dose: 2.0 mg/kg/injection, schedule: Q01DX005 (ip), vehicle: DMSO
  T/C: 107 % of control and 112 % of control
dose: 4.0 mg/kg/injection, schedule: Q01DX005 (ip), vehicle: DMSO
  T/C: 109 % of control
dose: 8.0 mg/kg/injection, schedule: Q01DX005 (ip), vehicle: DMSO
  T/C: 101 % of control and 107 % of control
dose: 16.0 mg/kg/injection, schedule: Q01DX005 (ip), vehicle: DMSO
  T/C: 108 % of control
dose: 32.0 mg/kg/injection, schedule: Q01DX005 (ip), vehicle: DMSO
  T/C: 107 % of control

## COc1ccc2nc3cc(Cl)ccc3c(Nc3ccccc3NS(C)(=O)=O)c2n1
dose: 12.5 mg/kg/injection, schedule: Q01DX009 (ip), vehicle: other
  T/C: 103 % of control
dose: 25.0 mg/kg/injection, schedule: Q01DX009 (ip), vehicle: other
  T/C: 105 % of control
dose: 50.0 mg/kg/injection, schedule: Q01DX009 (ip), vehicle: other
  T/C: 105 % of control
dose: 100.0 mg/kg/injection, schedule: Q01DX009 (ip), vehicle: other
  T/C: 111 % of control and 112 % of control
dose: 200.0 mg/kg/injection, schedule: Q01DX009 (ip), vehicle: other
  T/C: 106 % of control

## O=C(CC1=NC2NN(c3ccccc3)C(=O)C2=C1CC(=O)c1cccc2ccccc12)c1cccc2ccccc12 (stereo unspecified)
[9]
  T/C: 107 % of control
[10]
  T/C: 107 % of control
[11]
  T/C: 107 % of control

## N#CN(Cc1ccccc1)Cc1ccccc1.[Cl][Sn]([c]1ccccc1)([c]1ccccc1)[c]1ccccc1
dose: 3.12 mg/kg/injection, schedule: Q01DX005 (ip), vehicle: saline with Tween-80
  T/C: 98 % of control
dose: 6.25 mg/kg/injection, schedule: Q01DX005 (ip), vehicle: saline with Tween-80
  T/C: 95 % of control

## O=c1[nH]c2c(=O)[nH][nH]c(=O)c2[nH]c1=O
[12]
  T/C: 103 % of control
[13]
  T/C: 100 % of control
[3]
  T/C: 99 % of control and 105 % of control

## O=S(=O)(OCC#CCOS(=O)(=O)c1ccc(Cl)c(Cl)c1)c1ccc(Cl)c(Cl)c1
dose: 12.5 mg/kg/injection, schedule: Q01DX009 (ip), vehicle: Klucel (hydroxypropylcellulose) (HPC)
  T/C: 95 % of control
dose: 25.0 mg/kg/injection, schedule: Q01DX009 (ip), vehicle: Klucel (hydroxypropylcellulose) (HPC)
  T/C: 92 % of control
[1]
  T/C: 91 % of control
[2]
  T/C: 92 % of control

## COc1ccc(CSc2ncnc3nc[nH]c23)cc1
[6]
  T/C: 91 % of control
[7]
  T/C: 87 % of control

Source: PubChem BioAssay AID330 (DTP/NCI, 2004)
